{"source": "ChEMBL document CHEMBL1806395", "about": "“Recognition of drug degradation products by target proteins: isotetracycline binding to Tet repressor” (J Med Chem, 2011)", "key": {"[1]": {"experiment": "Binding affinity to recombinant TetR(D) expressed in Escherichia coli RB791 by SPR analysis"}, "[2]": {"experiment": "Binding affinity to recombinant TetR(D) expressed in Escherichia coli RB791 by fuorescence assay"}}}
{"smiles": "CN(C)[C@@H]1C(O)=C(C(N)=O)C(=O)[C@@]2(O)C(O)=C3C(=O)c4c(O)ccc(Cl)c4[C@@](C)(O)[C@H]3C[C@@H]12", "values": [{"measurement": "Ka", "setting": "[1]", "result": 2.36, "unit": "µM⁻¹"}, {"measurement": "Ka", "setting": "[2]", "result": 2.3, "unit": "µM⁻¹"}]}
{"smiles": "CN(C)[C@@H]1C(O)=C(C(N)=O)C(=O)[C@@]2(O)C(O)=C[C@@H]([C@]3(C)OC(=O)c4c(O)ccc(Cl)c43)C[C@@H]12", "values": [{"measurement": "Ka", "setting": "[1]", "result": 0.8, "unit": "µM⁻¹"}]}
